Experimental findings from patent publication US9738640B2, “Substituted benzamide derivatives as in vitro MAO-B inhibitors” (“NTZ LAB” Ltd., priority 2013, dated 2017) are described below.

Broadly, the IC50 is the midpoint of a concentration-inhibition curve.

Molecules are shown by their SMILES.

Format in all cases: biochemical
For one assay, the target named is rat MAO-A (Rattus norvegicus (Rat), UniProt P21396). The assay can be described thus: Rat MAO-A assay (Amplex Red fluorescence, rat liver mitochondria). As to conditions: deprenyl-pretreated, substrate p-tyramine 300 μM. The protocol:
(§1) The MAO-A and MAO-B enzyme activity of the compounds, according to the present invention, was estimated following an assay adapted from the method described by Holt et al. (Anal. Biochem. 244, 384-392, 1997). The MAO experiments were performed using a fluorescence-based detection of resorufin, obtained by a reaction of released from the biological sample hydrogen peroxide with 10-acetyl-3,7-dihydroxyphenoxazine (ADHP) in the presence of a peroxidase (horseradish peroxidase-coupled reaction, HRP). The inhibitory in vitro MAO activity of the compounds of general Formula I was investigated at rat and human MAO-A and MAO-B. To perform rat MAO-A and MAO-B experiments, a preliminary membrane preparation of mitochondrial-enriched rat livers isolated from male Sprague-Dawley rats (Harlan Sprague Dawley, Dublin, US) was required. As sources for recombinant human MAO-A and MAO-B enzymes were used microsomal products, prepared from baculovirus-infected insect cells expressing human MAO-A (Sigma-Aldrich, M7316) and human MAO-B (Sigma-Aldrich, M7441), respectively.
(§2) To estimate MAO inhibitory activity of the compounds of Formula I at rat and human MAO-A and MAO-B, the corresponding test compound was dissolved in 100% DMSO and subsequently added to the appropriate enzyme solution containing rat liver mitochondria (rat MAO-A and -B) or recombinant human protein (for determination of human MAO-A and -B) in sodium phosphate buffer. The test sample was incubated for 30 min at room temperature prior to the addition of Amplex Red reagent (Invitrogen A12214) using for the fluorescence-based measuring of MAO inhibitory activity. The enzymatic reaction was started by the addition of the substrate p-tyramine. The fluorescence measurements were performed over a period of 45 min using a microplate fluorescence reader (excitation at 544 nm and emission at 590 nm). IC50 values were determined from the inhibition curves obtained using different inhibitor concentrations in triplicate within the same experiment. A four-parameter logistic equation was used to fit the dose-response curves for test compounds using a computer program.
(§3) MAO-A and MAO-B enzymatic activity of the compounds was measured in 96-well-plates using a continuous fluorescence-based assay. This assay was adapted from the method described by Holt et al. (Anal. Biochem., 244, 384-392, 1997). The MAO experiments were performed using the commercial assay kit Amplex Red (Invitrogen A12214). The kit was stored frozen at ≦−20° C. and protected from light before use. The Amplex Red MAO assay kit was used for the detection of H2O2 released from the biological sample. Subsequently, a reaction of 10-acetyl-3,7-dihydroxyphenoxazine (ADHP, Amplex Red reagent) with H2O2 in the presence of a peroxidase (horse-radish peroxidase-coupled reaction, HRP) led to the production of resorufin. The quantification of hydrogen peroxide released from the biological sample and the subsequent production of resorufin was monitored using a fluorescence microplate reader (Holt et al., Anal. Biochem., 244, 384-392, 1997). To ensure an optimal efficiency of the Amplex Red reagent, the MAO assay's were performed at pH 7.4.
MAO enzyme-containing mitochondrial-enriched fractions of rat were obtained from male Sprague-Dawley rat livers (250-300 g, Harlan Sprague-Dawley, Dublin, Va., US). The livers (10.0 g) were dissected, given into 15.0 mL of an ice-cold 5.0 mM Hepes buffer (pH 7.4), containing 210 mM mannitol, 70 mM sucrose, 0.5 mM ethylene glycoltetraacetic acid (EGTA), and 2.0 mg/mL of bovine serum albumin (BSA), and homogenized using a glass/Teflon potter (10 ups and downs at 1100 rpm). After homogenization, the volume is adjusted to 100 mL with the same buffer. After a low speed centrifugation (10 min at 600 g; 4° C.), the supernatant was further centrifuged at 15,000 rpm for 5 min at +4° C. […]

The target of a further assay is human MAO-A (Homo sapiens (Human), UniProt P21397). The assay can be described thus: Human MAO-A assay (Amplex Red fluorescence, recombinant enzyme). Conditions: substrate p-tyramine 150 μM. As to the method:
as §1, §2, §3
Recombinant human MAO-A enzyme, expressed in baculovirus-infected insect cells, was purchased from Sigma-Aldrich (M7316). The assay was carried out in 96-well plates in a final volume of 200 μL at room temperature. According to the experiment protocol, a solution of test compound (2.0 μL) in DMSO (100%) was added to 90.0 μL of protein solution (0.3 μg prot/well, containing 6.6 μL protein and […] phosphate buffer) and incubated for 30 min prior to the addition of 90 μL of freshly prepared Amplex Red reagent. The Amplex Red reagent was prepared as described for rat MAO-A. The enzymatic reaction was started by the addition of 20.0 μL/well of an aqueous solution of the substrate p-tyramine (150 μM final concentration). […]

A further assay deals with rat MAO-B (Rattus norvegicus (Rat), UniProt P19643). The assay can be described thus: Rat MAO-B assay (Amplex Red fluorescence, rat liver mitochondria). As to conditions: clorgyline-pretreated, substrate p-tyramine.
A further assay has as its target human MAO-B (Homo sapiens (Human), UniProt P27338). The assay can be described thus: Human MAO-B assay (Amplex Red fluorescence, recombinant enzyme). As to conditions: substrate p-tyramine.

Sequence of human MAO-A (P21397 whole entry): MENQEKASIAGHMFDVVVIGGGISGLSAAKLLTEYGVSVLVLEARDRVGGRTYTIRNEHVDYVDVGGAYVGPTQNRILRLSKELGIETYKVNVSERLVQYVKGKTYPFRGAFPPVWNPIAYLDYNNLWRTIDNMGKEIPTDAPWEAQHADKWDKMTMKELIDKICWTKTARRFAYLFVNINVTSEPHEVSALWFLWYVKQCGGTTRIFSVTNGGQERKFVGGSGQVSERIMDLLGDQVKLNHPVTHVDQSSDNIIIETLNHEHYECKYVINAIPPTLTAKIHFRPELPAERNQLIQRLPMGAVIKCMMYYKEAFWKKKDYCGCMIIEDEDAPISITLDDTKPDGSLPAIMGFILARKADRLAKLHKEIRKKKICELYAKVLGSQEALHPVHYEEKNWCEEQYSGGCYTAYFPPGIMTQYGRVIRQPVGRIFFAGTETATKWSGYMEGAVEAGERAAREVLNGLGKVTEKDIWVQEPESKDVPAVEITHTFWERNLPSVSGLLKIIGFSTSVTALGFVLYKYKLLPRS
Sequence of rat MAO-B (P19643 whole entry): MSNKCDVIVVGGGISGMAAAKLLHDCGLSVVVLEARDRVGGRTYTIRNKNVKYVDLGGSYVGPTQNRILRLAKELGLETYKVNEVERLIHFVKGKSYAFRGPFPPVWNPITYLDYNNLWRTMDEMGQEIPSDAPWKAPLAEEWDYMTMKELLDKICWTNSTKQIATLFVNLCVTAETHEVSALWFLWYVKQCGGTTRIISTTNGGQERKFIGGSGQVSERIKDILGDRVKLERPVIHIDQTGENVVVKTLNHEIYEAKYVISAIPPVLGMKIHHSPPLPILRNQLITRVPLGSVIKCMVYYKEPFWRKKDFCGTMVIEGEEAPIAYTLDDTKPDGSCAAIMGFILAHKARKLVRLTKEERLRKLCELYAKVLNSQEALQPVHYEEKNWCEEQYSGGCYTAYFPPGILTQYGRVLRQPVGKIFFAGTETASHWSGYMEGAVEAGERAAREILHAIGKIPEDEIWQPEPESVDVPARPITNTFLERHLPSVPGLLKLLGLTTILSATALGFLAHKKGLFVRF
Sequence of human MAO-B (P27338 whole entry): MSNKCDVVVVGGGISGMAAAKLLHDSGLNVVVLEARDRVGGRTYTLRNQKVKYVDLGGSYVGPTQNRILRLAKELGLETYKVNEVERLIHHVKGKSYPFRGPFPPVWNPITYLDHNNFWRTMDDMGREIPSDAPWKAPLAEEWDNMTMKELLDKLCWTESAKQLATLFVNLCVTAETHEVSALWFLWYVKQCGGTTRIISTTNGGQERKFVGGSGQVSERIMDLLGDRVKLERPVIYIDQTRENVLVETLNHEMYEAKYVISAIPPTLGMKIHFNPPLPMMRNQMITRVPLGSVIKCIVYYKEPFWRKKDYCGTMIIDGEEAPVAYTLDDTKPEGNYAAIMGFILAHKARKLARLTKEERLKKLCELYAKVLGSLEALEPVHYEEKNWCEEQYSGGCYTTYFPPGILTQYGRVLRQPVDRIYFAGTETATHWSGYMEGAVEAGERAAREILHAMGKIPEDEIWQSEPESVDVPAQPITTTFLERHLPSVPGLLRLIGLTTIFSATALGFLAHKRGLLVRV
Sequence of rat MAO-A (P21396 whole entry): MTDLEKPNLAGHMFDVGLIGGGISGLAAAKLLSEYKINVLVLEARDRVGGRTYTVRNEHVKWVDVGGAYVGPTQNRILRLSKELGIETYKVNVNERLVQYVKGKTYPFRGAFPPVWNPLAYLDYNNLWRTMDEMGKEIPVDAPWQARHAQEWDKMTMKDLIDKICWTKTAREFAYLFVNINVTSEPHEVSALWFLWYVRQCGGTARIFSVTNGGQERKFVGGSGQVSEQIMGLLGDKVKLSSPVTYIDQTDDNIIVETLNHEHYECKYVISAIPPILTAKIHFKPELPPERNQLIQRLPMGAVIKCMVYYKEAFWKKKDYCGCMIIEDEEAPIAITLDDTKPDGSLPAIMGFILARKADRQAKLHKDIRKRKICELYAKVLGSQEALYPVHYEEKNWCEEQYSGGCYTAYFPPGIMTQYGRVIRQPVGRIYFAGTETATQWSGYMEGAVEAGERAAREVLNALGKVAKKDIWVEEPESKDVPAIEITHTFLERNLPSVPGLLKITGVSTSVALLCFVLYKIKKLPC
Method for human MAO-B: (§4) To estimate MAO inhibitory activity of the compounds of Formula I at rat and human MAO-A and MAO-B, the corresponding test compound was dissolved in 100% DMSO and subsequently added to the appropriate enzyme solution containing rat liver mitochondria (rat MAO-A and -B) or recombinant human protein (for determination of human MAO-A and -B) in sodium phosphate buffer. The test sample was incubated for 30 min at room temperature prior to the addition of Amplex Red reagent (Invitrogen A12214) using for the fluorescence-based measuring of MAO inhibitory activity. The enzymatic reaction was started by the addition of the substrate p-tyramine. […] IC50 values were determined from the inhibition curves obtained using different inhibitor concentrations in triplicate within the same experiment. A four-parameter logistic equation was used to fit the dose-response curves for test compounds using a computer program.
MAO-A and MAO-B enzymatic activity of the compounds was measured in 96-well-plates using a continuous fluorescence-based assay. […] The MAO experiments were performed using the commercial assay kit Amplex Red (Invitrogen A12214). The kit was stored frozen at ≦−20° C. and protected from light before use. The Amplex Red MAO assay kit was used for the detection of H2O2 released from the biological sample. Subsequently, a reaction of 10-acetyl-3,7-dihydroxyphenoxazine (ADHP, Amplex Red reagent) with H2O2 in the presence of a peroxidase (horse-radish peroxidase-coupled reaction, HRP) led to the production of resorufin. […] To ensure an optimal efficiency of the Amplex Red reagent, the MAO assay's were performed at pH 7.4.
The assay was carried out in 96-well plates in a final volume of 200 μL at room temperature. According to the experiment protocol, a solution of test compound (2.0 μL) in DMSO (100%) was added to 90.0 μL of protein solution (0.3 μg prot/well, containing 6.6 μL protein and 9.993 μL phosphate buffer) and incubated for 30 min prior to the addition of 90 μL of freshly prepared Amplex Red reagent. […] The p-tyramine solution was prepared from p-tyramine hydrochloride (45 μL) in water (100 mM) and phosphate buffer (2955 μL). […] DMSO (2.0 μL) was used as a negative control.
Recombinant human MAO-B enzyme, expressed in baculovirus-infected insect cells, was purchased from Sigma-Aldrich (M7441).
Method for rat MAO-B: as §4
MAO enzyme-containing mitochondrial-enriched fractions of rat were obtained from male Sprague-Dawley rat livers (250-300 g, Harlan Sprague-Dawley, Dublin, Va., US). The livers (10.0 g) were dissected, given into 15.0 mL of an ice-cold 5.0 mM Hepes buffer (pH 7.4), containing 210 mM mannitol, 70 mM sucrose, 0.5 mM ethylene glycoltetraacetic acid (EGTA), and 2.0 mg/mL of bovine serum albumin (BSA), and homogenized using a glass/Teflon potter (10 ups and downs at 1100 rpm). After homogenization, the volume is adjusted to 100 mL with the same buffer. After a low speed centrifugation (10 min at 600 g; 4° C.), the supernatant was further centrifuged at 15,000 rpm for 5 min at +4° C. The resulting pellet was resuspended in 2.0 mL of a 50 mM sodium phosphate buffer (pH 7.4) and stored at −80° C. in aliquots of 1.0 mL until further use.
Assays were performed in 96-well plates in a final volume of 200 μL at room temperature. […] Test compounds (2.0 μL), dissolved in DMSO (100%), were added to 90.0 μL of mitochondrial preparation (25.0 μg prot) and incubated for 30 min prior to the addition of 90 μL of freshly prepared Amplex Red reagent, prepared as recommended in the kit from Invitrogen (A12214). For a 96-well plate, 1.0 mg of Amplex Red, dissolved in 200 μL of DMSO (100%) and 100 μL of reconstituted horse-radish peroxidase (HRP 200 U/mL, Sigma Aldrich P6782) stock solution (kit vial+1.0 mL of sodium phosphate buffer) were added to 9700 μL of sodium phosphate buffer (250 mM at pH 7.4).

On to `O=C(Nc1ccc2[nH]ccc2n1)c1ccc(Cl)c(Cl)c1` [Example 1, 3,4-dichloro-N-(1H-pyrrolo[3,2-b]pyridin-5-yl)benzamide], for which the 50% inhibitory concentration (IC50) at rat MAO-A and on human MAO-A was more than 10000 nM in each case.

As to `O=C(Nc1ccc2[nH]ccc2n1)c1ccc(Cl)c(F)c1` [Example 3, 4-chloro-3-fluoro-N-(1H-pyrrolo[3,2-b]pyridin-5-yl)benzamide], the IC50 on rat MAO-A was more than 10000 nM; at rat MAO-B, 85.5 ± 5.8 nM; on human MAO-A, more than 10000 nM; at human MAO-B, 10.9 ± 0.75 nM.

With `O=C(Nc1ccc2c(ccn2C(=O)c2ccc(Cl)c(F)c2)n1)c1ccc(Cl)c(F)c1` [Example 5, 4-chloro-N-(1-(4-chloro-3-fluorobenzoyl)-1H-pyrrolo[3,2-b]pyridin-5-yl)-3-fluorobenzamide], the IC50 at rat MAO-A was more than 10000 nM; on rat MAO-B, 246 ± 53 nM; on human MAO-A, more than 10000 nM; on human MAO-B, 27.5 ± 2 nM.

For `O=C(Nc1ccc2[nH]ccc2n1)c1ccc(F)c(Cl)c1` [Example 2, 3-chloro-4-fluoro-N-(1H-pyrrolo[3,2-b]pyridin-5-yl)benzamide], the IC50 was more than 10000 nM at rat MAO-A, 4.9 ± 0.33 nM on rat MAO-B, more than 10000 nM on human MAO-A and 3.27 ± 0.04 nM at human MAO-B.

With `O=C(Nc1cc2cc[nH]c2cn1)c1ccc(Cl)c(Cl)c1` [Example 6, 3,4-dichloro-N-(1H-pyrrolo[2,3-c]pyridin-5-yl)benzamide], the IC50 on rat MAO-A is not below 10000 nM; at rat MAO-B it was 224 ± 17 nM; at human MAO-A it was less than 10000 nM; at human MAO-B, 28.5 ± 2.4 nM.

For the compound `O=C(Nc1cc2cc[nH]c2cn1)c1ccc(F)c(Cl)c1` [Example 7, 3-chloro-4-fluoro-N-(1H-pyrrolo[2,3-c]pyridin-5-yl)benzamide], the IC50 at rat MAO-A is less than 10000 nM; at rat MAO-B, 158 ± 16 nM; on human MAO-A it was less than 10000 nM; at human MAO-B it was 72 ± 2.6 nM.

Take `O=C(Nc1cc2cc[nH]c2cn1)c1ccc(F)c(F)c1` [Example 8, 3,4-difluoro-N-(1H-pyrrolo[2,3-c]pyridin-5-yl)benzamide]: the IC50 on rat MAO-A was more than 10000 nM; on human MAO-A, more than 10000 nM; on human MAO-B, 277 ± 12 nM.

As to `O=C(Nc1ccc2[nH]ccc2n1)c1ccc(F)c(F)c1` [Example 4, 3,4-difluoro-N-(1H-pyrrolo[3,2-b]pyridin-5-yl)benzamide], the IC50 at rat MAO-A was more than 10000 nM; on rat MAO-B, 153 ± 11 nM; on human MAO-A, more than 10000 nM; at human MAO-B it was 46.1 ± 1.5 nM.
